Reference: patent US6303596A, “Use of taurolidine for treatment of leukemias” (priority 2000, dated 2001)

Legend:
Assay type in all cases: cell-based, human
[1] = test system: ECV304 (endothelial cells); experiment: growth rate (proliferation) after taurolidine treatment, ECV304; conditions: ECV304, 50 and 100 μg/ml taurolidine
Protocol: FIGS. 10A and 10B depict cell viability and growth rates for ECV304 cell line following taurolidine treatment, in terms of % trypan blue negative cells and % cell number, respectively. Cells were treated with various concentrations of taurolidine for 4 hours in AIM-V+0.01% BCS. After aliquots were collected for LDH assay, the remainder of the culture was rinsed in HBSS and resuspended in RPMI+10% BCS without taurolidine. Counts of trypan blue-negative cells (FIG. 10A), and total cell number (FIG. 10B), were recorded daily thereafter (with the measurement at Day 1 being made immediately after the 4 hour taurolidine treatment). Conditions were: no treatment (open circles); 25 μg/ml taurolidine (closed circles); 50 μg/ml taurolidine (open squares); 100 μg/ml taurolidine (closed squares); and vehicle alone (closed triangles). Doubling times were determined under each condition, and expressed as a percentage of the rate of doubling of untreated cells. These values are located to the right of the growth curves in (FIG. 10B). […]
(§1) HL-60 cells treated with 50 μl taurolidine. In these samples, LDH present in the culture medium was 8.3±2.3% of that released by completely lysed cells, compared with 2.3±0.8% measured in control cultures. […] After 4 hour treatment, cells were rinsed and returned to growth medium and monitored for viability and growth over the following 3 days. […]

GM5387 = experiment: TUNEL / propidium iodide flow cytometry, GM5387; conditions: GM5387, 6 hours after treatment
Protocol: (§2) In the second method, DNA fragmentation was detected via TUNEL assay according to the manufacturer's instructions. With this methodology, 2×10^6 cells were fixed with 2% paraformaldehyde, permeabilized with 0.1% Triton X-100/0.1% citrate, incubated at 37° C. with terminal deoxynucleotidyl transferase and FITC-dUTP, rinsed and analyzed by flow cytometry. Enhanced FITC signal indicates apoptosis-specific DNA fragmentation. Gavriali, et al, "Identification of programmed cell death in situ via specific labeling of nuclear DNA fragmentation," J Cell Biol 119:493 (1992). Parallel aliquots of unfixed cells were treated with PI and FITC-conjugated anti-CD14 and analyzed by flow cytometry, in order to identify cells with permeable cell membranes (since PI binds to DNA but is excluded from cells with intact plasma membranes) and also to determine the cell-specificity of the apoptotic signal.
(§3) In another study, TUNEL assays were performed on all cell lines 6 hours after cells were initially exposed to taurolidine (cells were treated for 4 hours, rinsed, and then incubated for 2 more hours before TUNEL assay was performed).
. Taurolidine and anisomycin induced apoptosis in MM6, HL-60, and Jurkat cells (Table VIII). MM6 and HL-60 cells were similarly effected, with >80% TUNEL-positive cells after 6 hours. […]
Data are percent of total cell-size events, and are expressed as mean ± […]

HL-60 cells = experiment: trypan blue exclusion, HL-60; conditions: HL-60, 25 μg/ml taurolidine, versus MM6, K562, Jurkat
Protocol: FIGS. 7A and 7B depict cell viability and growth rates for HL-60 cell line following taurolidine treatment, in terms of % trypan blue negative cells and % cell number, respectively. Cells were treated with various concentrations of taurolidine for 4 hours in AIM-V+0.01% BCS. After aliquots were collected for LDH assay, the remainder of the culture was rinsed in HBSS and resuspended in RPMI+10% BCS without taurolidine. Counts of trypan blue-negative cells (FIG. 7A), and total cell number (FIG. 7B), were recorded daily thereafter (with the measurement at Day 1 being made immediately after the 4 hour taurolidine treatment). […] Doubling times were determined under each condition, and expressed as a percentage of the rate of doubling of untreated cells. […]
In these experiments, integrity of cell membranes following taurolidine treatment was assessed by exclusion of trypan blue and by measuring the release of LDH in MM6, K-562, HL-60, and REH cells. […] A parallel aliquot of cells was lysed by three cycles of freeze/thaw and the quantity of LDH released was taken to be 100%. […]
HL-60 cells treated with 50 μl taurolidine. In these samples, LDH present in the culture medium was 8.3±2.3% of that released by completely lysed cells, compared with 2.3±0.8% measured in control cultures. […]

REH = experiment: TUNEL / propidium iodide flow cytometry, REH
Protocol: as §2, §3
. Taurolidine and anisomycin induced apoptosis in MM6, HL-60, and Jurkat cells (Table VIII). MM6 and HL-60 cells were similarly effected, with >80% TUNEL-positive cells after 6 hours. Jurkat cells were less sensitive, with approximately 50% of cells induced to undergo apoptosis after taurolidine treatment. After 6 hours, 73% of anisomycin-treated REH cells were apoptotic, with less than 20% of taurolidine-treated REH cells being TUNEL-positive. However, assay of cells 24 hours after
^a Analysis by flow cytometry after staining cells with propidium
iodide and processing for TUNEL.
Data are percent of total cell-size events, and are expressed as mean ±
Cells were treated for 4 hours with taurolidine (100 μg/ml) or
anisomycin (1 μg/ml), and then assayed at 6 hours.
Data are percent of total cell-sized events, and are expressed as mean ±
anisomycin (1 μg/ml), and then assayed at 24 hours.

all other cell lines = experiment: LDH release (cell membrane integrity), all other cell lines; conditions: all samples from all other cell lines (n=3); 240 min
Protocol: In these experiments, integrity of cell membranes following taurolidine treatment was assessed by exclusion of trypan blue and by measuring the release of LDH in MM6, K-562, HL-60, and REH cells. Since BCS contains significant amounts of LDH, these experiments were conducted on cells cultured in AIM-V+0.01% BCS. Four hour treatment of cells was conducted in AIM-V containing 0.01% BCS in order to allow subsequent LDH assay without interference from BCS (which occurs in when normal culture medium, containing 10% BCS, is used). Thus, MM6 cells (5×10^5 cells/ml) were treated with taurolidine for four hours in AIM-V+0.01% BCS, after which an aliquot of the cell suspension was removed for measurement of LDH release. A parallel aliquot of cells was lysed by three cycles of freeze/thaw and the quantity of LDH released was taken to be 100%. Remaining cells were rinsed in HBSS and resuspended in growth medium for measurement of growth rates.
as §1

In the case of O=S1(=O)CCN(CN2CCS(=O)(=O)NC2)CN1 [taurolidine, 4,4'-methylenebis(perhydro-1,2,4-thiadiazin 1,1-dioxide)], the proliferation after treatment [1] is reported as “inhibited proliferation”, the “DNA fragmentation (TUNEL positivity)” value (GM5387) is reported as “did not demonstrate evidence for fragmentation of DNA” and the “trypan blue staining after treatment, sensitivity” value (HL-60 cells) is reported as “more sensitive”. For the same compound, the “rate of apoptosis induction versus anisomycin” value (REH) was “less rapidly than with anisomycin treatment”, the “% TUNEL-positive” value (REH; taurolidine 100 μg/ml or anisomycin 1 μg/ml for 4 h, assayed at 24 hours, mean ± SD) was 81.4 ± 4.4% and the “LDH levels, % of lysed cell samples” value (all other cell lines) was ≤ 7%.
